In ChEMBL document CHEMBL4507318, “Data for DCP probe BAY-985” (2021):

Experiments:
[1] = test system: Tyrosine-protein kinase ABL1 (Homo sapiens), P00519 [F317I]
[2] = test system: Tyrosine-protein kinase ABL1 (Homo sapiens), P00519 [M351T]
[3] = molecular target: Activin receptor type-1B (Homo sapiens) (UniProt P36896)
[4] = molecular target: Activin receptor type-1-like (Homo sapiens) (UniProt P37023)
[5] = molecular target: RAC-beta serine/threonine-protein kinase (Homo sapiens) (UniProt P31751)
[6] = molecular target: Cytoplasmic tyrosine-protein kinase BMX (Homo sapiens) (UniProt P51813)
[7] = molecular target: Calcium/calmodulin-dependent protein kinase type II subunit beta (Homo sapiens) (UniProt Q13554)
Chain of Calcium/calmodulin-dependent protein kinase type II subunit beta (Homo sapiens) (Q13554 whole entry): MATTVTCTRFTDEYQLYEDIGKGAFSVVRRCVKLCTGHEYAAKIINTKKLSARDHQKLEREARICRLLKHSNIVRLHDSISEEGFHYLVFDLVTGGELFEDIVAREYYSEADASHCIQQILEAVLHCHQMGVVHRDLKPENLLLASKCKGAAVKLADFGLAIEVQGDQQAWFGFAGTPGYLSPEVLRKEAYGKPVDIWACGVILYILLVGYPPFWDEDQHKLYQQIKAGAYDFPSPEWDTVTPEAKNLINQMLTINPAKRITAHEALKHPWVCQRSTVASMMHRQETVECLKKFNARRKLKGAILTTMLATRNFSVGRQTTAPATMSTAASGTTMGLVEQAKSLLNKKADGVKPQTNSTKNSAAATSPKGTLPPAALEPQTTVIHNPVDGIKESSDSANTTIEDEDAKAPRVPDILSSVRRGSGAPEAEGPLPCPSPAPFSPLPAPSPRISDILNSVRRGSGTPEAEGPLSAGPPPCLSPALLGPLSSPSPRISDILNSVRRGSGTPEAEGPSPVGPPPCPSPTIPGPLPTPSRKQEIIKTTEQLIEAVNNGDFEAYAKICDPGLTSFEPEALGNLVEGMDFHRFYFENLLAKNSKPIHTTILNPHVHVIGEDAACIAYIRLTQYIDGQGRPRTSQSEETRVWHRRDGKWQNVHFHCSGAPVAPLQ

[8] = molecular target: Calcium/calmodulin-dependent protein kinase type II subunit gamma (Homo sapiens) (UniProt Q13555)
[9] = molecular target: Calcium/calmodulin-dependent protein kinase type IV (Homo sapiens) (UniProt Q16566)
[10] = molecular target: Macrophage colony-stimulating factor 1 receptor (Homo sapiens) (UniProt P07333)
Chain of Macrophage colony-stimulating factor 1 receptor (Homo sapiens) (P07333 whole entry, canonical isoform): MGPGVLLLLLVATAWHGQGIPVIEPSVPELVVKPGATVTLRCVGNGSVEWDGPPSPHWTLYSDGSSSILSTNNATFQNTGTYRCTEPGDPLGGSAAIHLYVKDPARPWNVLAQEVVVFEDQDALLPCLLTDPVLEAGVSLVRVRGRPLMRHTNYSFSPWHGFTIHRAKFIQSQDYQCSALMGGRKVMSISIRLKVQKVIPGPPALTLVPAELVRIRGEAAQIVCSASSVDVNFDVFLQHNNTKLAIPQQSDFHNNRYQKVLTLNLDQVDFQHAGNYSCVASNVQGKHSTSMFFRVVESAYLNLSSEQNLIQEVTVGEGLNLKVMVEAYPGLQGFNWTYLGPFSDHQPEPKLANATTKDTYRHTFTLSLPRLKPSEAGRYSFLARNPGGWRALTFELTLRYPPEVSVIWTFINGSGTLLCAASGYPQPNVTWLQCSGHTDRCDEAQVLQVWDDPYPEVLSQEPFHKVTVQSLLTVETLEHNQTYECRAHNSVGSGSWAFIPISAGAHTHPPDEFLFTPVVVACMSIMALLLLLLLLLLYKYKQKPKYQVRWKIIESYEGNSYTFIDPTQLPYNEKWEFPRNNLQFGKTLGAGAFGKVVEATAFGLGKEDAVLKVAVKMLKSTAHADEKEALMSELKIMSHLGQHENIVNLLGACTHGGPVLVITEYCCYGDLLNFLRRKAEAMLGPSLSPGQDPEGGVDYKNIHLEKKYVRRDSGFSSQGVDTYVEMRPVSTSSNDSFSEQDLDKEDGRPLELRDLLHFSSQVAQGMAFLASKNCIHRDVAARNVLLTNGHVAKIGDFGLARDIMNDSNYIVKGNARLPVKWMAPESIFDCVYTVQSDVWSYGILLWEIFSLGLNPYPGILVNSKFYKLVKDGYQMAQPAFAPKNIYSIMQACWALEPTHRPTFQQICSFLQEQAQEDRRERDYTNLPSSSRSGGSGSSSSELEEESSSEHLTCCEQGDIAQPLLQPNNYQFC

[11] = molecular target: Macrophage colony-stimulating factor 1 receptor (Homo sapiens) (UniProt P07333); remark: listed apart in the source
[12] = molecular target: Casein kinase I isoform delta (Homo sapiens) (UniProt P48730)
[13] = molecular target: Casein kinase I isoform epsilon (Homo sapiens) (UniProt P49674)
Chain of Casein kinase I isoform epsilon (Homo sapiens) (P49674 whole entry, looked up, canonical isoform): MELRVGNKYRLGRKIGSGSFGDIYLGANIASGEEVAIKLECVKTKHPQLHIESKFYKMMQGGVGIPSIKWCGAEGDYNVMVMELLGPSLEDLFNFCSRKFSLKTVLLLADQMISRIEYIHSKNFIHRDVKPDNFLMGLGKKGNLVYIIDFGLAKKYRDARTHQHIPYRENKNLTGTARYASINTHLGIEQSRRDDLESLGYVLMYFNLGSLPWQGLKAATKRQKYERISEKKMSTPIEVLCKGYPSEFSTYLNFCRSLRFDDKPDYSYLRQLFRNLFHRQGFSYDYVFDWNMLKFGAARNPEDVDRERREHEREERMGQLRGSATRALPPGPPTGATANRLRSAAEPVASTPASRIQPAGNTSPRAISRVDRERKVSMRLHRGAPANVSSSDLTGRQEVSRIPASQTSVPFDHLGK

[14] = molecular target: Casein kinase I isoform gamma-2 (Homo sapiens) (UniProt P78368)
[15] = molecular target: Serine/threonine-protein kinase MRCK gamma (Homo sapiens) (UniProt Q6DT37)
Chain of Serine/threonine-protein kinase MRCK gamma (Homo sapiens) (Q6DT37 whole entry): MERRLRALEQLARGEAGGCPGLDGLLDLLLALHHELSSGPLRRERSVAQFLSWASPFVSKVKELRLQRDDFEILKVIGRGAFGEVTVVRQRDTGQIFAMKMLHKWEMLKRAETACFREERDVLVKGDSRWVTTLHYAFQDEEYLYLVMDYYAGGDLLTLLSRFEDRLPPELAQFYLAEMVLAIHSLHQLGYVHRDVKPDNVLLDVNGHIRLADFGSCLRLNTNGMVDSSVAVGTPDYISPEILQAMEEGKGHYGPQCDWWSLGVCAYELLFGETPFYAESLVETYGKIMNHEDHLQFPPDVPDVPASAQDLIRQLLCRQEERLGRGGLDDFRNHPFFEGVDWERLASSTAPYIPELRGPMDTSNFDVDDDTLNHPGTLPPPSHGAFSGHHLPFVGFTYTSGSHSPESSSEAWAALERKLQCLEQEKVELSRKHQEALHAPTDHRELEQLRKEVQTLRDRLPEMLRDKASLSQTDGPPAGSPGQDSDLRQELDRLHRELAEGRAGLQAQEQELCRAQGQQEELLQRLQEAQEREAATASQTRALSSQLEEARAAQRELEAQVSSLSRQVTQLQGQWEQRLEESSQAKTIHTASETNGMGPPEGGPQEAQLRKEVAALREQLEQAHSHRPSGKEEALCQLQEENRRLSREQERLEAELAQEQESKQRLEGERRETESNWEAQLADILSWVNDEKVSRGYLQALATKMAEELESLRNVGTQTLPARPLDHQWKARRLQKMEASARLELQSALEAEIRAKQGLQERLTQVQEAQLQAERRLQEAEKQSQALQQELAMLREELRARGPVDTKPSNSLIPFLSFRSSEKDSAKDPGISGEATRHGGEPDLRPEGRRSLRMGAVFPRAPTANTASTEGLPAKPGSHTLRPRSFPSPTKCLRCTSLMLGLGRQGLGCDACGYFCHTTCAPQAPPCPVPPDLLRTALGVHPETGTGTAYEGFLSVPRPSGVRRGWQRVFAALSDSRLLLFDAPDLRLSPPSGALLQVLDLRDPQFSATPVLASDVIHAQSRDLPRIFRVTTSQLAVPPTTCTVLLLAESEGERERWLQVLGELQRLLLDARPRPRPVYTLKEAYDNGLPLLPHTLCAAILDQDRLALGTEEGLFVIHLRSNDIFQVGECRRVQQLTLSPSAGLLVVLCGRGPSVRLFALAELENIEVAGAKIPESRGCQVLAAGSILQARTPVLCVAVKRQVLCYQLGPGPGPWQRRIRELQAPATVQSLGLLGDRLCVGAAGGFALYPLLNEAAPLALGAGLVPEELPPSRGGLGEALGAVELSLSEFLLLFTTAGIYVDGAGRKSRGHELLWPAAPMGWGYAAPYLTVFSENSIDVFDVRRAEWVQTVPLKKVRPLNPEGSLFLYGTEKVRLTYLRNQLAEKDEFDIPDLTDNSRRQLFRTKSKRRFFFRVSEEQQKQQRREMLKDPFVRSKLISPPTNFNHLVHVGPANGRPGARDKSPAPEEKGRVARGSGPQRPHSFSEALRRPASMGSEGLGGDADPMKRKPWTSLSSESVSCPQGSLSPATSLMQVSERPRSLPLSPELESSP

[16] = molecular target: Dual specificity tyrosine-phosphorylation-regulated kinase 1B (Homo sapiens) (UniProt Q9Y463)
[17] = test system: Epidermal growth factor receptor (Homo sapiens), P00533 [L858R]
[18] = molecular target: Receptor tyrosine-protein kinase erbB-2 (Homo sapiens) (UniProt P04626)
[19] = molecular target: Receptor tyrosine-protein kinase erbB-3 (Homo sapiens) (UniProt P21860)
[20] = molecular target: Mitogen-activated protein kinase 15 (Homo sapiens) (UniProt Q8TD08)
[21] = molecular target: Receptor-type tyrosine-protein kinase FLT3 (Homo sapiens) (UniProt P36888)
[22] = test system: Receptor-type tyrosine-protein kinase FLT3 (Homo sapiens), P36888 [K663Q]
[23] = molecular target: Receptor-type tyrosine-protein kinase FLT3 (Homo sapiens) (UniProt P36888); remark: listed apart in the source
[24] = molecular target: Inhibitor of nuclear factor kappa-B kinase subunit beta (Homo sapiens) (UniProt O14920)
[25] = molecular target: Mast/stem cell growth factor receptor Kit (Homo sapiens) (UniProt P10721)
[26] = molecular target: Leukocyte tyrosine kinase receptor (Homo sapiens) (UniProt P29376)
[27] = molecular target: Mitogen-activated protein kinase kinase kinase 4 (Homo sapiens) (UniProt Q9Y6R4)
[28] = molecular target: MAP kinase-activated protein kinase 5 (Homo sapiens) (UniProt Q8IW41)
[29] = molecular target: Serine/threonine-protein kinase Nek7 (Homo sapiens) (UniProt Q8TDX7)
[30] = molecular target: Platelet-derived growth factor receptor alpha (Homo sapiens) (UniProt P16234)
[31] = molecular target: Calcium-dependent protein kinase 1 (Plasmodium falciparum) (UniProt P62344)
[32] = molecular target: Phosphorylase b kinase gamma catalytic chain, skeletal muscle/heart isoform (Homo sapiens) (UniProt Q16816)
Chain of Phosphorylase b kinase gamma catalytic chain, skeletal muscle/heart isoform (Homo sapiens) (Q16816 whole entry, looked up, canonical isoform): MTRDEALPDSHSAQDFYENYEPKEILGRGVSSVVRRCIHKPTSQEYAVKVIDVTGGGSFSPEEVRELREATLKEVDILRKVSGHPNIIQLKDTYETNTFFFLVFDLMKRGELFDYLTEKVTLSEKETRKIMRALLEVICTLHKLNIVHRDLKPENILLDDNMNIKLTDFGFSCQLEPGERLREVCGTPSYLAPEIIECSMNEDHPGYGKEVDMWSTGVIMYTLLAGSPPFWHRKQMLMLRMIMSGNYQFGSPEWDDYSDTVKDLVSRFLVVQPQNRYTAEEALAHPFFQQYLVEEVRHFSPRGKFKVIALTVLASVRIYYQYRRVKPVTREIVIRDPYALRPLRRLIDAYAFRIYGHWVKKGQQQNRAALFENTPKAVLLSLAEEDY

[33] = test system: Phosphatidylinositol 4,5-bisphosphate 3-kinase catalytic subunit alpha isoform (Homo sapiens), P42336 [E542K]
Chain of Phosphatidylinositol 4,5-bisphosphate 3-kinase catalytic subunit alpha isoform (Homo sapiens), P42336 [E542K] (P42336 whole entry E542K, canonical isoform): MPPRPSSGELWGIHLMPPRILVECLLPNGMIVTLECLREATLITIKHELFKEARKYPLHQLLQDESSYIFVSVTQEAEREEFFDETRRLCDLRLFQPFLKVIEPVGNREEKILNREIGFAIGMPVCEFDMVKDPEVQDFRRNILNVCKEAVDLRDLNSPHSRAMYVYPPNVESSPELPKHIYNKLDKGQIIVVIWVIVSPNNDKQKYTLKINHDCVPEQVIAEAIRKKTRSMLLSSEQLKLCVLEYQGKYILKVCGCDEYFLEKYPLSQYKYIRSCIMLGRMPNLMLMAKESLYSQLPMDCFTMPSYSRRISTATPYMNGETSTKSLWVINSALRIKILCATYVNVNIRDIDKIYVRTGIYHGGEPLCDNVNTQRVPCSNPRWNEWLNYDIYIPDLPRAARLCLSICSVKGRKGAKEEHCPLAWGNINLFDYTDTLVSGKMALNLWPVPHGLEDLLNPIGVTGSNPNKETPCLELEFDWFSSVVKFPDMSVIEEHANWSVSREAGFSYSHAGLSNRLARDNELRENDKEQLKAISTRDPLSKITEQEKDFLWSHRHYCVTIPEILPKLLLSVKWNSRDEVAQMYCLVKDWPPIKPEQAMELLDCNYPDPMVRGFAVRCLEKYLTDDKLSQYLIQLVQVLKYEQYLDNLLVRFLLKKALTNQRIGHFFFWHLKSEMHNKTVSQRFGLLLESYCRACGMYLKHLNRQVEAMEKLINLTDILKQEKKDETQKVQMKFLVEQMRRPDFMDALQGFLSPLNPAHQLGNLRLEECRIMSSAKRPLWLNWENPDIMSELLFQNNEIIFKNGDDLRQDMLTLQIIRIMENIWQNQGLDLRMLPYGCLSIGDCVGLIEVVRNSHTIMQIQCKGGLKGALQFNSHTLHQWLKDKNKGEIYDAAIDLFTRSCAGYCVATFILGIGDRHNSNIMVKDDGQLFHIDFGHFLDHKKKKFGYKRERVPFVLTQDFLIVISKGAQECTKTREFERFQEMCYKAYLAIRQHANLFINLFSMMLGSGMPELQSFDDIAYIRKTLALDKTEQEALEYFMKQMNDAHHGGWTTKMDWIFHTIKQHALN

[34] = test system: Phosphatidylinositol 4,5-bisphosphate 3-kinase catalytic subunit alpha isoform (Homo sapiens), P42336 [Q546K]
[35] = molecular target: Proto-oncogene tyrosine-protein kinase receptor Ret (Homo sapiens) (UniProt P07949)
[36] = molecular target: Serine/threonine-protein kinase RIO2 (Homo sapiens) (UniProt Q9BVS4)
[37] = molecular target: Serine/threonine-protein kinase Sgk2 (Homo sapiens) (UniProt Q9HBY8)
[38] = molecular target: Serine/threonine-protein kinase 33 (Homo sapiens) (UniProt Q9BYT3)
[39] = molecular target: Tyrosine-protein kinase receptor Tie-1 (Homo sapiens) (UniProt P35590)
[40] = molecular target: Testis-specific serine/threonine-protein kinase 1 (Homo sapiens) (UniProt Q9BXA7)
[41] = molecular target: Serine/threonine-protein kinase 25 (Homo sapiens) (UniProt O00506)
[42] = molecular target: 5-hydroxytryptamine receptor 1B (Homo sapiens) (UniProt P28222); details: Compound concentration 10.0 uM
[43] = molecular target: GABA-A receptor; anion channel (Rattus norvegicus) (UniProt O09028+P15431+P18506+P18508+P19969+P20236+P23574+P23576+P28471+P28473+P30191+P62813+P63079+P63138+Q91ZM7+Q9ES14); details: Compound concentration 10.0 uM
[44] = Compound concentration 1000.0 nM
[45] = Compound concentration 100.0 nM

CN(C)c1ncnc(-c2ccc3nc(Nc4cc(CN5CCN(C(=O)CC(F)(F)F)CC5)ccn4)[nH]c3c2)c1Cl [BAY-440]
residual activity [1, 44]: 71% | residual activity [2, 44]: 43% | residual activity [3, 44]: 91% | residual activity [4, 44]: 94% | residual activity [5, 44]: 95% | residual activity [6, 44]: 100% | residual activity [7, 44]: 100% | residual activity [8, 44]: 100% | residual activity [9, 44]: 89% | residual activity [10, 44]: 100% | residual activity [11, 44]: 50% | residual activity [12, 44]: 83% | residual activity [13, 44]: 100% | residual activity [14, 44]: 100% | residual activity [15, 44]: 100% | residual activity [16, 44]: 100% | residual activity [17, 44]: 100% | residual activity [18, 44]: 87% | residual activity [19, 44]: 63% | residual activity [20, 44]: 73% | residual activity [21, 44]: 71% | residual activity [22, 44]: 81% | residual activity [23, 44]: 71% | residual activity [24, 44]: 80% | residual activity [25, 44]: 100% | residual activity [26, 44]: 88% | residual activity [27, 44]: 100% | residual activity [28, 44]: 96% | residual activity [29, 44]: 100% | residual activity [30, 44]: 61% | residual activity [31, 44]: 100% | residual activity [32, 44]: 96% | residual activity [33, 44]: 29% | residual activity [34, 44]: 30% | residual activity [35, 44]: 77% | residual activity [36, 44]: 81% | residual activity [37, 44]: 43% | residual activity [38, 44]: 100% | residual activity [39, 44]: 66% | residual activity [40, 44]: 100% | residual activity [41, 44]: 100% | inhibition [42]: 6.15% | inhibition [43]: 14%

C[C@H](c1ccnc(Nc2nc3ccc(-c4cc(N(C)C)ncn4)cc3[nH]2)c1)N1CCN(C(=O)CC(F)(F)F)CC1 [BAY-985]
residual activity [1, 45]: 100% | residual activity [2, 45]: 100% | residual activity [3, 45]: 94% | residual activity [4, 45]: 100% | residual activity [5, 45]: 100% | residual activity [6, 45]: 100% | residual activity [7, 45]: 92% | residual activity [8, 45]: 77% | residual activity [9, 45]: 100% | residual activity [10, 45]: 100% | residual activity [11, 45]: 90% | residual activity [12, 45]: 89% | residual activity [13, 45]: 100% | residual activity [14, 45]: 96% | residual activity [15, 45]: 79% | residual activity [16, 45]: 84% | residual activity [17, 45]: 95% | residual activity [18, 45]: 100% | residual activity [19, 45]: 88% | residual activity [20, 45]: 100% | residual activity [21, 45]: 67% | residual activity [22, 45]: 60% | residual activity [23, 45]: 95% | residual activity [24, 45]: 99% | residual activity [25, 45]: 88% | residual activity [26, 45]: 100% | residual activity [27, 45]: 96% | residual activity [28, 45]: 86% | residual activity [29, 45]: 100% | residual activity [30, 45]: 99% | residual activity [31, 45]: 100% | residual activity [32, 45]: 100% | residual activity [33, 45]: 53% | residual activity [34, 45]: 45% | residual activity [35, 45]: 100% | residual activity [36, 45]: 100% | residual activity [37, 45]: 100% | residual activity [38, 45]: 100% | residual activity [39, 45]: 85% | residual activity [40, 45]: 100% | residual activity [41, 45]: 100% | inhibition [42]: 11.5% | inhibition [43]: 5.57%
